Measured values taken from ChEMBL document CHEMBL1158870, “Antitumor agents. 180. Chemical Studies and cytotoxic evaluation of cumingianosides and cumindysoside A, antileukemic triterpene glucosides with a 14,18-cycloapotirucallane skeleton” (1997).

What was measured:
Assay type in all cases: functional
KM12 = experiment: Cytotoxicity against human KM12 cells by SRB assay
[1] = Cytotoxicity against human Colon cancer cells by SRB assay; conditions: Cancer cell lines
HCT-116 = experiment: Cytotoxicity against human HCT116 cells by SRB assay
HCT-15 = experiment: Cytotoxicity against human HCT15 cells by SRB assay
[2] = Cytotoxicity against human melanoma cells by SRB assay; conditions: Melanoma cell
[3] = Cytotoxicity against human renal cancer cells by SRB assay; conditions: Cancer cell lines
HT-29 = experiment: Cytotoxicity against human HT29 cells by SRB assay
NSCLC = experiment: Cytotoxicity against human NSCLC cells by SRB assay
[4] = Cytotoxicity against human CNS cancer cells by SRB assay; conditions: Cancer cell lines
COLO 205 = experiment: Cytotoxicity against human COLO205 cells by SRB assay
SW-620 = experiment: Cytotoxicity against human SW620 cells by SRB assay
[5] = Cytotoxicity against human ovarian cancer cells by SRB assay; conditions: Cancer cell lines
Leukemia cell = experiment: Cytotoxicity against human Leukemia cells by SRB assay
HCC 2998 = experiment: Cytotoxicity against human HCC2998 cells by SRB assay

## COC(C)(C)[C@@H](O)[C@H](O)C[C@H](C)[C@@H]1CC[C@]23C[C@]12CC[C@@H]1[C@@]2(C)CC[C@@H](OC(C)=O)C(C)(C)[C@@H]2C[C@@H](O[C@@H]2O[C@H](COC(C)=O)[C@@H](O)[C@H](O)[C@H]2O)[C@]13C [CUMINGIANOSIDE C]
KM12
  TGI: 7.6 µM
[1]
  TGI: 7.9 µM
HCT-116
  TGI: 8.7 µM
HCT-15
  TGI: 6.3 µM
[2]
  TGI: 12.6 µM
[3]
  TGI: 13.2 µM
HT-29
  TGI: 2.5 µM
NSCLC
  TGI: 12.4 µM
[4]
  TGI: 11.6 µM
COLO 205
  TGI: 11.3 µM
SW-620
  TGI: 13.7 µM
[5]
  TGI: 12 µM
Leukemia cell
  TGI: 11.3 µM
HCC 2998
  TGI: 4.9 µM
